Measurements taken from ChEMBL document CHEMBL3992499, “Synthesis, biological evaluation, QSAR and molecular dynamics simulation studies of potential fibroblast growth factor receptor 1 inhibitors for the treatment of gastric cancer” (Eur J Med Chem, 2017).
Activity calls are given as the source filed them. The rule behind the calls is not given here.

Legend:
[1] = system: SGC-7901; assay: Antiproliferative activity against human SGC7901 cells after 72 hrs by MTT assay; details: SGC-7901, 72 h
[2] = system: MGC-803; assay: Antiproliferative activity against human MGC803 cells after 72 hrs by MTT assay; details: MGC-803, 72 h
[3] = system: BGC-823; assay: Antiproliferative activity against human BGC823 cells after 72 hrs by MTT assay; details: BGC-823, 72 h
[4] = system: SGC-7901; assay: Cell cycle arrest in human SGC7901 cells assessed as accumulation at G0/G1 phase after 8 hrs by propidium iodide staining based flow cytometry; assay type: functional
[5] = system: SGC-7901; assay: Cell cycle arrest in human SGC7901 cells assessed as reduction in G2/M phase up to 20 uM after 8 hrs by propidium iodide staining based flow cytometry; assay type: functional
[6] = system: SGC-7901; assay: Induction of apoptosis in human SGC7901 cells assessed as downregulation of Cyclin D1 expression by western blot method; assay type: functional, cell-based
[7] = system: SGC-7901; assay: Induction of apoptosis in human SGC7901 cells assessed as chromatin condensation after 12 hrs by Hoechst 33342 staining based fluorescence microscopic method; assay type: functional, cell-based
[8] = system: SGC-7901; assay: Induction of apoptosis in human SGC7901 cells assessed as nuclear fragmentation up to 20 uM after 12 hrs by Hoechst 33342 staining based fluorescence microscopic method; assay type: functional, cell-based
[9] = system: SGC-7901; assay: Induction of apoptosis in human SGC7901 cells assessed as increase in cleaved PARP expression level after 48 hrs by Western blot method; assay type: functional, cell-based
[10] = system: SGC-7901; assay: Induction of apoptosis in human SGC7901 cells assessed as decrease in Bcl2 expression level after 48 hrs by Western blot method; assay type: functional, cell-based
[11] = system: SGC-7901; assay: Induction of apoptosis in human SGC7901 cells assessed as increase in cleaved PARP expression level at 10 uM after 48 hrs by Western blot method; assay type: functional, cell-based
[12] = system: SGC-7901; assay: Induction of apoptosis in human SGC7901 cells assessed as decrease in Bcl2 expression level at 10 uM after 48 hrs by Western blot method; assay type: functional, cell-based

Compound | IC50 [1] [µM] | IC50 [2] [µM] | IC50 [3] [µM] | Activity [4] | Activity [5] | Activity [6] | Activity [7] | Activity [8] | Activity [9] | Activity [10] | Activity [11] | Activity [12]
CC(Cc1ccc(O)c(O)c1)C(C)Cc1ccc(O)c(O)c1 (configuration not stated) [NORDIHYDROGUAIARETIC ACID] | > 60 | 45.8 | > 60 | – | – | – | – | – | – | – | – | –
COc1cc(/C=C/C(=O)/C=C/c2ccc(N3CCCC3)cc2)ccc1O | 8.2 | 12.3 | 21.2 | – | – | – | – | – | – | – | – | –
COc1cc(/C=C2\CC/C(=C\c3c[nH]c4ccc(Br)cc34)C2=O)ccc1O | 9.6 | 2.6 | 2 | Dose-dependent effect | Active | Dose-dependent effect | Dose-dependent effect | Active | Dose-dependent effect | Dose-dependent effect | Active | Active
CCN(CC)c1ccc(/C=C/C(=O)/C=C/c2ccc(O)c(OC)c2)cc1 | 8.2 | 2.1 | 2.5 | Dose-dependent effect | Active | Dose-dependent effect | Dose-dependent effect | Active | Dose-dependent effect | Dose-dependent effect | Active | Active
COc1cc(/C=C2\CCC/C(=C\c3ccc(N4CCCCC4)cc3)C2=O)ccc1OC(=O)C(C)C | 18.8 | 11.8 | 31.5 | – | – | – | – | – | – | – | – | –

Stronger by IC50 [1], values ahead:

IC50 [1] [µM] | IC50 [2] [µM] | IC50 [3] [µM] | Compound | Activity [4] | Activity [5] | Activity [6] | Activity [7] | Activity [8] | Activity [9] | Activity [10] | Activity [11] | Activity [12]
5.7 | 5 | 10.1 | COc1cc(/C=C2\CC/C(=C\c3ccc(OC(=O)C(C)C)c(OC)c3)C2=O)ccc1OC(=O)C(C)C | – | – | – | – | – | – | – | – | –
4.7 | 8.3 | 11.9 | CCC(=O)Oc1ccc(/C=C2\CC/C(=C\c3ccc(OC(=O)CC)c(OC)c3)C2=O)cc1OC | – | – | – | – | – | – | – | – | –
2.8 | 6.2 | 7.9 | COc1cc(CCc2cc(NC(=O)c3ccc(N4C[C@@H](C)N[C@@H](C)C4)cc3)n[nH]2)cc(OC)c1 [FEXAGRATINIB] | – | – | – | – | – | – | – | – | –
